For test [1], the system named is Eimeria acervulina. Kind of test: In vivo anti-coccidial activity against Eimeria acervulina (chick 7-day coccidiosis model). The class given is functional.
In test [2] the test system is Eimeria tenella. The experiment in a line: In vivo anti-coccidial activity against Eimeria tenella (chick 7-day coccidiosis model). It is filed as functional.
The test system of test [3] is Eimeria tenella. The experiment in a line: In vitro anti-coccidial activity against chicken hepatocyte Eimeria tenella. The class given is functional, organism-based.
Test [4] has as its system Eimeria acervulina. The experiment in a line: In vitro anti-coccidial activity against chicken hepatocyte Eimeria acervulina. It is filed as functional, organism-based.

SMILES strings stand for the structures. Converted amounts (≈) assume the structure as drawn.

Among the data in ChEMBL document CHEMBL1131848, “8-aminoquinolines as anticoccidials - Part III” (Bioorg Med Chem Lett, 1999) are ED95 and IC50 values, retold here.

The term IC50 denotes the midpoint of a concentration-inhibition curve. Turning to `COc1cc(NCCCCCNC2CCCO2)c2ncccc2c1` (configuration not stated), the ED95 in the test with Eimeria acervulina [1] and in the test with Eimeria tenella [2] was 12.5 p.p.m. in feed in each case. The IC50 was 0.2 µg/mL (≈ 0.607 µM) in the test with Eimeria tenella [3] and 1 µg/mL (≈ 3.04 µM) with Eimeria acervulina [4].
As to `COc1cc(NCCNC(C)C)c2ncccc2c1`, the ED95 with Eimeria acervulina [1] and with Eimeria tenella [2] was >25 p.p.m. in feed throughout. Besides, the IC50 with Eimeria tenella [3] was > 1 µg/mL; in the test with Eimeria acervulina [4], 1 µg/mL (≈ 3.86 µM).
For `COc1cc(NCCCCCNC(C)(C)C)c2ncccc2c1`, the ED95 in the test with Eimeria acervulina [1] was >25 p.p.m. in feed; with Eimeria tenella [2] it was 6.25 p.p.m. in feed. Besides, the IC50 in the test with Eimeria tenella [3] and in the test on Eimeria acervulina [4] was 0.2 µg/mL (≈ 0.634 µM) throughout.
On to `COc1cc(NCc2ccc(NC(C)C)cc2)c2ncccc2c1`, for which the ED95 in the test on Eimeria acervulina [1] and with Eimeria tenella [2] was >12.5 p.p.m. in feed throughout. Further, the IC50 was > 1 µg/mL in the test on Eimeria tenella [3] and 1 µg/mL (≈ 3.11 µM) in the test with Eimeria acervulina [4].
Consider `COc1cc(NCCCCCNC2CCCC2)c2ncccc2c1`, for which the ED95 in the test with Eimeria acervulina [1] and with Eimeria tenella [2] was >25 p.p.m. in feed in each case. The IC50 in the test on Eimeria tenella [3] and with Eimeria acervulina [4] was 0.2 µg/mL (≈ 0.611 µM) each time.
`COc1cc(NCCCCCN)c2ncccc2c1`: the ED95 in the test with Eimeria acervulina [1] and with Eimeria tenella [2] was 100 p.p.m. in feed in each case. For the same compound, the values for the IC50 in the test with Eimeria tenella [3] and in the test with Eimeria acervulina [4] were > 1 µg/mL and 1 µg/mL (≈ 3.86 µM), respectively.
Consider `CCN(CC)CCC[C@H](C)Nc1cc(OC)cc2cccnc12`, for which the ED95 with Eimeria acervulina [1] and with Eimeria tenella [2] was >50 p.p.m. in feed throughout. Besides, the values for the IC50 in the test with Eimeria tenella [3] and in the test with Eimeria acervulina [4] were 0.2 µg/mL (≈ 0.634 µM) and > 1 µg/mL, respectively.
In the case of `CCNCCCCCNc1cc(OC)cc2cccnc12`, the ED95 with Eimeria acervulina [1] is reported as >50 p.p.m. in feed; in the test on Eimeria tenella [2], 6.25 p.p.m. in feed. The IC50 in the test on Eimeria tenella [3] and in the test with Eimeria acervulina [4] was 0.2 µg/mL (≈ 0.696 µM) throughout.
For the compound `N#CC(c1ccc(Cl)cc1)c1c(Cl)cc(-n2ncc(=O)[nH]c2=O)cc1Cl` (configuration not stated) [DICLAZURIL], the ED95 in the test on Eimeria acervulina [1] and with Eimeria tenella [2] was 1 p.p.m. in feed each time. Besides, the IC50 with Eimeria tenella [3] and in the test on Eimeria acervulina [4] was 0.008 µg/mL (≈ 0.0196 µM) throughout.
Take `COc1cc(NCCCNC(C)C)c2ncccc2c1`: the ED95 in the test on Eimeria acervulina [1] and with Eimeria tenella [2] was >25 p.p.m. in feed each time. The IC50 with Eimeria tenella [3] and in the test on Eimeria acervulina [4] was 0.2 µg/mL (≈ 0.732 µM) each time.
Consider `COc1cc(NCCCCCNCc2ccccc2)c2ncccc2c1`, for which the ED95 with Eimeria acervulina [1] and in the test with Eimeria tenella [2] was >25 p.p.m. in feed throughout. Moreover, the half-inhibitory concentration (IC50) in the test with Eimeria tenella [3] and in the test on Eimeria acervulina [4] was 0.2 µg/mL (≈ 0.572 µM) throughout.
For `COc1cc(NCCCCCNC2CCSCC2)c2ncccc2c1`, the ED95 in the test with Eimeria acervulina [1] and with Eimeria tenella [2] was >50 p.p.m. in feed throughout. Besides, the IC50 in the test with Eimeria tenella [3] worked out at 0.2 µg/mL (≈ 0.556 µM); with Eimeria acervulina [4], 1 µg/mL (≈ 2.78 µM).
As for `COc1cc(NCCCCCNC2CCOCC2)c2ncccc2c1`, the ED95 in the test on Eimeria acervulina [1] was 12.5 p.p.m. in feed; with Eimeria tenella [2] it was 6.25 p.p.m. in feed. Also, the IC50 in the test with Eimeria tenella [3] and in the test on Eimeria acervulina [4] was 0.2 µg/mL (≈ 0.582 µM) each time.
With `COc1cc(N[C@@H](C)CCCNC(C)C)c2ncccc2c1`, the ED95 in the test with Eimeria acervulina [1] and with Eimeria tenella [2] was >50 p.p.m. in feed each time. For the same compound, the IC50 in the test with Eimeria tenella [3] was > 1 µg/mL; in the test with Eimeria acervulina [4], 1 µg/mL (≈ 3.32 µM).
Turning to `COc1cc(NCCCCCNC2CC2)c2ncccc2c1`, the ED95 in the test on Eimeria acervulina [1] and with Eimeria tenella [2] was >12.5 p.p.m. in feed each time. For the same compound, the IC50 in the test on Eimeria tenella [3] and in the test on Eimeria acervulina [4] was 0.2 µg/mL (≈ 0.668 µM) each time.
For the compound `COc1cc(NCCCCCNC(C)C)c2ncccc2c1` [PENTAQUINE], the ED95 in the test on Eimeria acervulina [1] and in the test with Eimeria tenella [2] was 12.5 p.p.m. in feed throughout. Moreover, the IC50 in the test on Eimeria tenella [3] and with Eimeria acervulina [4] was 0.2 µg/mL (≈ 0.663 µM) each time.
With `COc1cc(NCCCCNC(C)C)c2ncccc2c1`, the ED95 in the test on Eimeria acervulina [1] and in the test on Eimeria tenella [2] was 6.25 p.p.m. in feed throughout. Also, the IC50 in the test with Eimeria tenella [3] and with Eimeria acervulina [4] was 0.2 µg/mL (≈ 0.696 µM) in each case.
Regarding `COc1cc(NCCCCCNC2CC[S+]([O-])CC2)c2ncccc2c1` (configuration not stated), the ED95 in the test on Eimeria acervulina [1] and in the test with Eimeria tenella [2] was >25 p.p.m. in feed each time. The concentration for half-maximal inhibition (IC50) in the test with Eimeria tenella [3] is > 1 µg/mL; with Eimeria acervulina [4] it was > 5 µg/mL.
